From patent US20250011881A1, “MYC-HSF1 DUAL AMPLIFICATION AS A BIOMARKER FOR CANCER TREATMENT” (The Trustees of Indiana University, priority 2023, published 2025)
Where a name gives a salt, the structure may show the parent alone.

system: ovarian cancer cells with (OVCAR8, OVCAR4) or without (OVSAHO, CAOV3) MYC-HSF1 amplification; assay: Epigenetic inhibitor drug screen, cell viability (Cell Titer Blue); type: cell-based; conditions: not given

Q: With `O=C(Nc1ccc(CN2CCOCC2)cc1)c1ccc(-c2cccc(Cl)c2)o1` [CID 2011756] as the compound, how does the “Non Amp - AMP (POC) 10 uM” value read?
A: 21.79 POC

Q: Which “Non Amp - AMP (POC) 10 uM” value does the source give for `CC(C)(O)/C=C/C(=O)[C@](C)(O)[C@H]1[C@H](O)C[C@@]2(C)[C@@H]3CC=C4[C@@H](C=C(O)C(=O)C4(C)C)[C@]3(C)C(=O)C[C@]12C` [Cucurbitacin I] here?
A: 0.02387 POC

Q: For `CCCCCCCCCCCCC/C=C/[C@@H](O)[C@@H](N)CO` [D-erythro-Sphingosine (synthetic), D-erythro-Sphingosine], which “Non Amp - AMP (POC) 10 uM” value is on record?
A: 2.713 POC

Q: Which “Non Amp - AMP (POC) 10 uM” value does the source give for `O=C(O)CNC(=O)C1C(=O)N(C2CCCCC2)C(=O)N(C2CCCCC2)C1=O` [Daprodustat(GSK1278863), Daprodustat] here?
A: 0.9715 POC

Q: Which “Non Amp - AMP (POC) 10 uM” value does the source give for `Cl.Cl.c1cc(-c2cnn3cc(-c4ccc(OCCN5CCCCC5)cc4)cnc23)ccn1` [Dorsomorphin 2HCl] here?
A: 15.62 POC

same assay, conditions: 10 uM, 48 hrs; average relative cell viability (vs 1% DMSO) of non-amplified cells (OVSAHO, CAOV3) minus that of MYC-HSF1 amplified cells (OVCAR8, OVCAR4); positive = greater response in amplified cells

Q: Which “Non Amp - AMP (POC) 10 uM” value does the source give for `Cl.NC(=O)[C@H](CCCN=C(N)CCl)NC(=O)c1ccccc1` [CI-Amidine (hydrochloride), CI-Amidine] here?
A: 5.451 POC

Q: How did the “Non Amp - AMP (POC) 10 uM” value turn out when `CCS(=O)(=O)N1CCC([C@@H](C)n2c(C)c(C(=O)NCc3c(OC)cc(C)[nH]c3=O)c3ccccc32)CC1` [CPI-169] was run?
A: 3.906 POC

Q: How did the “Non Amp - AMP (POC) 10 uM” value turn out when `C[C@@H]1CC(=O)Nc2cccc(-c3ccc4c(c3)c(-c3cnn(C)c3)nn4C)c2N1` [CPI-637] was run?
A: −2.546 POC

Q: For `Cl.Clc1ccc(-c2csc(NN=C3CCCC3)n2)cc1` [CPTH2 (hydrochloride)], which “Non Amp - AMP (POC) 10 uM” value is on record?
A: 6.251 POC

Q: Which “Non Amp - AMP (POC) 10 uM” value does the source give for `Br.CC1CC/C(=N\Nc2nc(-c3ccc(Cl)cc3)cs2)C1` (centres unmarked) [CPTH6 (hydrobromide)] here?
A: 13.3 POC

Q: With `C#Cc1cccc(Nc2ncnc3cc(OC)c(OCCCCCCC(=O)NO)cc23)c1` [CUDC-101] as the compound, how does the “Non Amp - AMP (POC) 10 uM” value read?
A: 28.26 POC

Q: `COc1ccc(-c2nc(N3CCOCC3)c3sc(CN(C)c4ncc(C(=O)NO)cn4)cc3n2)cn1` [CUDC-907] was tested. Which “Non Amp - AMP (POC) 10 uM” value did it give?
A: 8.159 POC

Q: How did the “Non Amp - AMP (POC) 10 uM” value turn out when `CN1CCCN(C(=O)c2cccc(-c3ccc(/C=C4/C(=O)Nc5ccc(Cl)cc54)o3)c2)CC1` [CX-6258] was run?
A: −7.528 POC

Q: For `Cc1nn(C)cc1CN1CCC(c2ccc(C(=O)Nc3ccccc3N)cc2)CC1` [CXD101], which “Non Amp - AMP (POC) 10 uM” value is on record?
A: 83.35 POC

Q: For `Cc1nc(N)sc1-c1ccnc(Nc2ccc(N3CCOCC3)cc2)n1` [CYC116], which “Non Amp - AMP (POC) 10 uM” value is on record?
A: 8.383 POC

Q: With `N#CCNC(=O)c1ccc(-c2ccnc(Nc3ccc(N4CCOCC4)cc3)n2)cc1` [CYT387] as the compound, how does the “Non Amp - AMP (POC) 10 uM” value read?
A: −4.087 POC

Q: Which “Non Amp - AMP (POC) 10 uM” value does the source give for `N.N.O=C([O-])C1(C(=O)[O-])CCC1.[Pt+2]` [Carboplatin] here?
A: −13.46 POC

Q: For `Cn1cc(C(=O)Nc2ccc3c(c2)OCCO3)c2ccccc2c1=O` [CeMMEC1], which “Non Amp - AMP (POC) 10 uM” value is on record?
A: −1.809 POC

Q: How did the “Non Amp - AMP (POC) 10 uM” value turn out when `CCS(=O)(=O)N1CCN(c2ccc(Nc3ncc(C(N)=O)c(NC4CC4)n3)cc2)CC1` [Cerdulatinib (PRT062070), Cerdulatinib] was run?
A: −1.406 POC

Q: How did the “Non Amp - AMP (POC) 10 uM” value turn out when `Nc1cc(F)ccc1NC(=O)c1ccc(CNC(=O)/C=C/c2cccnc2)cc1` [Chidamide] was run?
A: 33.85 POC

Q: `O=c1ccc2ccccc2o1` [Coumarin] was tested. Which “Non Amp - AMP (POC) 10 uM” value did it give?
A: 5.809 POC

Q: How did the “Non Amp - AMP (POC) 10 uM” value turn out when `C=C1C[C@@]2(O)O[C@@]3(C[C@H]2C(C)C)[C@@H](C)CC[C@@H]13` [Curcumol] was run?
A: −1.726 POC

Q: `CN1CCC(=C2c3ccccc3C=Cc3ccccc32)CC1` [Cyproheptadine (hydrochloride hydrate), Cyproheptadine] was tested. Which “Non Amp - AMP (POC) 10 uM” value did it give?
A: 6.958 POC

Q: Which “Non Amp - AMP (POC) 10 uM” value does the source give for `Nc1ccn([C@@H]2O[C@H](CO)[C@@H](O)[C@@H]2O)c(=O)n1` [Cytarabine] here?
A: 1.9 POC

Q: With `COC(=O)CNC(=O)C(=O)OC` [DMOG] as the compound, how does the “Non Amp - AMP (POC) 10 uM” value read?
A: −8.654 POC

Q: For `CO[C@@H](C(=O)N1Cc2n[nH]c(NC(=O)c3ccc(N4CCN(C)CC4)cc3)c2C1)c1ccccc1` [Danusertib (PHA-739358), Danusertib], which “Non Amp - AMP (POC) 10 uM” value is on record?
A: −1.72 POC

Q: How did the “Non Amp - AMP (POC) 10 uM” value turn out when `CCCCCCCCCC(=O)N[C@@H](Cc1c[nH]c2ccccc12)C(=O)N[C@H](CC(N)=O)C(=O)N[C@@H](CC(=O)O)C(=O)N[C@@H]1C(=O)NCC(=O)N[C@@H](CCCN)C(=O)N[C@@H](CC(=O)O)C(=O)N[C@H](C)C(=O)N[C@@H](CC(=O)O)C(=O)NCC(=O)N[C@H](CO)C(=O)N[C@@H]([C@H](C)CC(=O)O)C(=O)N[C@@H](CC(=O)c2ccccc2N)C(=O)O[C@@H]1C` [Daptomycin] was run?
A: 3.207 POC

Q: Which “Non Amp - AMP (POC) 10 uM” value does the source give for `CC[C@@](C)(Nc1ccnc(-c2c[nH]c3ncccc23)n1)C(=O)NCC(F)(F)F` [Decernotinib(VX-509), Decernotinib] here?
A: 7.322 POC

Q: How did the “Non Amp - AMP (POC) 10 uM” value turn out when `Oc1cc(O)c2cc(O)c(-c3cc(O)c(O)c(O)c3)[o+]c2c1` [Delphinidin (chloride), Delphinidin] was run?
A: 9.89 POC

Q: With `C[C@@H]1CC[C@@]2(OC1)O[C@H]1C[C@H]3[C@@H]4CC=C5C[C@@H](O)CC[C@]5(C)[C@H]4CC[C@]3(C)[C@H]1[C@@H]2C` [Diosgenin] as the compound, how does the “Non Amp - AMP (POC) 10 uM” value read?
A: 5.646 POC

Q: Which “Non Amp - AMP (POC) 10 uM” value does the source give for `COc1cc2c(cc1OC)C(=O)C(CC1CCN(Cc3ccccc3)CC1)C2` (centres unmarked) [Donepezil HCl] here?
A: −4.516 POC

Q: With `c1cc(-c2cnn3cc(-c4ccc(OCCN5CCCCC5)cc4)cnc23)ccn1` [Dorsomorphin (Compourd C), Dorsomorphin] as the compound, how does the “Non Amp - AMP (POC) 10 uM” value read?
A: 7.913 POC

Q: `Cc1cc(Cl)ccc1OCCCC(=O)NO` [Droxinostat] was tested. Which “Non Amp - AMP (POC) 10 uM” value did it give?
A: −21.53 POC

Q: `CS(=O)(=O)c1ccc(-c2cnc(NCc3ccco3)n3cnnc23)cc1` [EED226] was tested. Which “Non Amp - AMP (POC) 10 uM” value did it give?
A: 32.64 POC

Q: With `CCC(CC)n1ccc2c(C(=O)NCc3c(C)cc(C)[nH]c3=O)cc(C#N)cc21` [EI1] as the compound, how does the “Non Amp - AMP (POC) 10 uM” value read?
A: 15.27 POC

Q: With `Cc1cc(Nc2cc(N3CCN(C)CC3)nc(/C=C/c3ccccc3)n2)n[nH]1.O=C(O)C(O)C(O)C(=O)O` [ENMD-2076 L-(+)-Tartaric acid] as the compound, how does the “Non Amp - AMP (POC) 10 uM” value read?
A: −24.46 POC

Q: For `Cc1cc(Nc2cc(N3CCN(C)CC3)nc(/C=C/c3ccccc3)n2)n[nH]1` [ENMD-2076], which “Non Amp - AMP (POC) 10 uM” value is on record?
A: −22.8 POC

Q: `CC(C)N(CCCNC(=O)Nc1ccc(C(C)(C)C)cc1)C[C@H]1O[C@@H](n2ccc3c(N)ncnc32)[C@H](O)[C@@H]1O.O=CO` [EPZ004777 (formate)] was tested. Which “Non Amp - AMP (POC) 10 uM” value did it give?
A: 10.91 POC

Q: For `CC(C)N(CCCNC(=O)Nc1ccc(C(C)(C)C)cc1)C[C@H]1O[C@@H](n2ccc3c(N)ncnc32)[C@H](O)[C@@H]1O` [EPZ004777], which “Non Amp - AMP (POC) 10 uM” value is on record?
A: 6.632 POC

Q: `Cc1cc(C)c(CNC(=O)c2cc(-c3ccc(CN4CCOCC4)cc3)cc3c2cnn3C2CCCC2)c(=O)[nH]1` [EPZ005687] was tested. Which “Non Amp - AMP (POC) 10 uM” value did it give?
A: 15.13 POC

same assay, conditions: 10 uM, 48 hrs; average relative cell viability (vs 1% DMSO) of non-amplified cells (OVSAHO, CAOV3) minus that of MYC-HSF1 amplified cells (OVCAR8, OVCAR4); positive = greater response in amplified cells; 10 µM

Q: With `CC(=O)Nc1ccc(C(=O)Nc2ccccc2N)cc1` [CI-994, Tacedinaline] as the compound, how does the “Non Amp - AMP (POC) 10 uM” value read?
A: 25.18 POC

Q: For `COc1ccc2c(c[n+](C)c3c4cc5c(cc4ccc23)OCO5)c1OC` [Chelerythrine Chloride], which “Non Amp - AMP (POC) 10 uM” value is on record?
A: −21.5 POC

Q: How did the “Non Amp - AMP (POC) 10 uM” value turn out when `COc1ccc2c(c[n+](C)c3c4cc5c(cc4ccc23)OCO5)c1OC` [Chelerythrine] was run?
A: −18.62 POC

Q: `CCCC(CCC)C(=O)O` [Divalproex Sodium] was tested. Which “Non Amp - AMP (POC) 10 uM” value did it give?
A: −6.451 POC

Q: For `COc1cccc2c1C(=O)c1c(O)c3c(c(O)c1C2=O)C[C@@](O)(C(=O)CO)C[C@@H]3O[C@H]1C[C@H](N)[C@H](O)[C@H](C)O1` [Doxorubicin (Adriamycin) HCl, Doxorubicin], which “Non Amp - AMP (POC) 10 uM” value is on record?
A: 3.26 POC

Q: For `COc1cccc2c1C(=O)c1c(O)c3c(c(O)c1C2=O)C[C@@](O)(C(=O)CO)C[C@@H]3O[C@H]1C[C@H](N)[C@H](O)[C@H](C)O1` [Doxorubicin], which “Non Amp - AMP (POC) 10 uM” value is on record?
A: 4.864 POC

same assay, conditions: 10 uM, 48 hrs; average relative cell viability (vs 1% DMSO) of non-amplified cells (OVSAHO, CAOV3) minus that of MYC-HSF1 amplified cells (OVCAR8, OVCAR4); positive = greater response in amplified cells; listed as CI994 (Tacedinaline), 10 µM

Q: For `CC(=O)Nc1ccc(C(=O)Nc2ccccc2N)cc1` [CI-994, Tacedinaline], which “Non Amp - AMP (POC) 10 uM” value is on record?
A: 16.47 POC
